Laboratory results: US10954252B1, “Inhibitors of human immunodeficiency virus replication” (ViiV HEALTHCARE UK (NO.5) LIMITED, priority 2017, dated 2021)

Experiments:
[1] = system: recombinant NL4-3 virus (nef section replaced with Renilla luciferase gene) in MT-2 cells; experiment: HIV cell culture assay (antiviral activity, luciferase readout); format: cell-based; settings: MT-2 cells infected for 4-5 days with recombinant NL4-3 luciferase virus
Procedure: HIV cell culture assay—MT-2 cells, 293T cells and the proviral DNA clone of NL4-3 virus were obtained from the NIH AIDS Research and Reference Reagent Program. MT-2 cells were propagated in RPMI 1640 media supplemented with 10% heat inactivated fetal bovine serum (FBS), 100 μg/ml penicillin G and up to 100 units/mL streptomycin. The 293T cells were propagated in DMEM media supplemented with 10% heat inactivated FBS, 100 μg/mL penicillin G and 100 μg/mL streptomycin. A recombinant NL4-3 proviral clone, in which a section of the nef gene was replaced with the Renilla luciferase gene, was used to make the reference virus used in these studies. The recombinant virus was prepared through transfection of the recombinant NL4-3 proviral clone into 293T cells using Transit-293 Transfection Reagent from Mirus Bio LLC (Madison, Wis.). Supernatent was harvested after 2-3 days and the amount of virus present was titered in MT-2 cells using luciferase enzyme activity as a marker by measuring luciferase enzyme activity. Luciferase was quantitated using the EnduRen Live Cell Substrate from Promega (Madison, Wis.). Antiviral activities of compounds toward the recombinant virus were quantified by measuring luciferase activity in MT-2 cells infected for 4-5 days with the recombinant virus in the presence of serial dilutions of the compound.
The 50% effective concentration (ECs) was calculated by using the exponential form of the median effect equation where (Fa)=1/[1+(ED50/drug conc.)^m] (Johnson Va., Byington RT. Infectivity Assay. In Techniques in HIV Research. ed. Aldovini A, Walker BD. 71-76. New York: Stockton Press. 1990).

[2] = Compound cytotoxicity, XTT-based colorimetric assay; format: cell-based; settings: human, uninfected MT2 cells
Procedure: Compound cytotoxicity and the corresponding CC50 values were determined using the same protocol as described in the antiviral assay except that uninfected cells were used. Cytotoxicity was assessed on day 4 in uninfected MT2 cells by using a XTT (2,3-bis[2-Methoxy-4-nitro-5-sulfophenyl]-2H-tetrazolium-5-carboxyanilide inner salt)-based colorimetric assay (Sigma-Aldrich, St Louis, Mo.). Biological data for select compounds of the invention are contained in Table 1 and Table 1a

| Compound | EC50 ([1]; Renilla, NL43, Table 1) [nM] | CC50 at 4 days ([2]; Table 1, day 4, XTT) [nM] | EC50 ([1]; Renilla, NL43, Table 1a) [nM] | CC50 at 4 days ([2]; Table 1a, day 4, XTT) [nM] | EC50 ([1]; Table 1a) [nM] |
| --- | --- | --- | --- | --- | --- |
| Cn1nc(NS(C)(=O)=O)c2c(Cl)ccc(-n3c([C@H](Cc4cc(F)cc(F)c4)NC(=O)Cn4nc(C(F)F)c5c4C(F)(F)[C@@H]4C[C@H]54)nc4cccc(Cl)c4c3=O)c21 (single isomer, unassigned) [Example 22.2] | 130 | > 1000 | – | – | – |
| O=C(Cn1nc(C(F)F)c2c1C(F)(F)[C@@H]1C[C@H]21)N[C@@H](Cc1cc(F)cc(F)c1)c1nc2cn[nH]c2cc1-c1cccc2c1CNC2=O [Example 10.13, 2-((3bS,4aR)-3-(difluoromethyl)-5,5-difluoro-3b,4,4a,5-tetrahydro-1H-cyclopropa[3,4]cyclopenta[1,2-c]pyrazol-1-yl)-N—((S)-2-(3,5-difluorophenyl)-1-(6-(1-oxoisoindolin-4-yl)-1H-pyrazolo[4,3-b]pyridin-5-yl)ethyl)acetamide] | 12 | > 10000 | – | – | – |
| Cn1nc(NS(C)(=O)=O)c2c(Cl)ccc(-n3c([C@H](Cc4cc(F)cc(F)c4)NC(=O)Cc4n[nH]c5ccc(O)cc45)nc4ncccc4c3=O)c21 (single isomer, unassigned) [Example 49.1] | – | – | 93 | > 1000 | – |
| Cn1nc(NS(C)(=O)=O)c2c(Cl)ccc(-n3c([C@H](Cc4cc(F)cc(F)c4)NC(=O)Cn4nc(C(F)F)c5c4C(F)(F)[C@@H]4C[C@H]54)nc4cc(C#N)ccc4c3=O)c21 (single isomer, unassigned) [Example 20] | 24 | > 10000 | – | – | – |
| COc1ccc(-n2c([C@H](Cc3cc(F)cc(F)c3)NC(=O)Cc3c[nH]c4ccc(O)cc34)nc3ccccc3c2=O)cc1 [Example 10.30] | 8 | > 10000 | – | – | – |
| Cn1nc(NS(C)(=O)=O)c2c(Cl)ccc(-n3c([C@H](Cc4cc(F)cc(F)c4)NC(=O)Cn4ccc(C5CC5)n4)nc4cc(C(C)(C)S(C)(=O)=O)ccc4c3=O)c21 (single isomer, unassigned) [Example 212] | – | – | 0.63 | > 1000 | – |
| O=C(Cn1nc(C(F)F)c2c1C(F)(F)[C@@H]1C[C@H]21)NC(Cc1cc(F)cc(F)c1)c1nc2ncccc2c(=O)n1-c1ccc(Cl)cc1 (stereo partly drawn) [Example 123, N-(1-(3-(4-chlorophenyl)-4-oxo-3,4-dihydropyrido[2,3-d]pyrimidin-2-yl)-2-(3,5-difluorophenyl)ethyl)-2-((3bS,4aR)-3-(difluoromethyl)-5,5-difluoro-3b,4,4a,5-tetrahydro-1H-cyclopropa[3,4]cyclopenta[1,2-c]pyrazol-1-yl)acetamide] | – | – | 408 | > 1000 | – |
| COc1cc(F)c2c(=O)n(-c3ccc(Cl)c4c(NS(C)(=O)=O)nn(C)c34)c([C@H](Cc3cc(F)cc(F)c3)NC(=O)Cn3ccc(C4CC4)n3)nc2c1 [Example 188, (S)—N-(1-(3-(4-chloro-1-methyl-3-(methylsulfonamido)-1H-indazol-7-yl)-5-fluoro-7-methoxy-4-oxo-3,4-dihydroquinazolin-2-yl)-2-(3,5-difluorophenyl)ethyl)-2-(3-cyclopropyl-1H-pyrazol-1-yl)acetamide] | – | – | – | > 1000 | – |
| Cn1nc(NS(C)(=O)=O)c2c(Cl)ccc(-n3c([C@H](Cc4cc(F)cc(F)c4)NC(=O)Cn4ccc(C5CC5)n4)nc4cc(F)cc(F)c4c3=O)c21 (single isomer, unassigned) [Example 131] | – | – | 111 | > 1000 | – |
| O=C(Cn1nc(C(F)F)c2c1C(F)(F)[C@@H]1C[C@H]21)N[C@@H](Cc1cc(F)cc(F)c1)c1nc2cn[nH]c2cc1-c1ccc2c(c1)C(=O)NC2 [Example 10.14, 2-((3bS,4aR)-3-(difluoromethyl)-5,5-difluoro-3b,4,4a,5-tetrahydro-1H-cyclopropa[3,4]cyclopenta[1,2-c]pyrazol-1-yl)-N—((S)-2-(3,5-difluorophenyl)-1-(6-(3-oxoisoindolin-5-yl)-1H-pyrazolo[4,3-b]pyridin-5-yl)ethyl)acetamide] | 2.5 | > 10000 | – | – | – |
| O=C(Cn1nc(C(F)F)c2c1C(F)(F)[C@@H]1C[C@H]21)N[C@@H](Cc1cc(F)cc(F)c1)c1nc2cn[nH]c2cc1-c1ccc(Cl)c(C(=O)NS(=O)(=O)C2CCCC2)c1 [Example 10.21, 2-Chloro-N-(cyclopentylsulfonyl)-5-(5-((S)-1-(2-((3bS,4aR)-3-(difluoromethyl)-5,5-difluoro-3b,4,4a,5-tetrahydro-1H-cyclopropa[3,4]cyclopenta[1,2-c]pyrazol-1-yl)acetamido)-2-(3,5-difluorophenyl)ethyl)-1H-pyrazolo[4,3-b]pyridin-6-yl)benzamide] | 240 | > 10000 | – | – | – |
| CS(=O)(=O)Nc1nn(CC(F)F)c2c(-c3cc4[nH]ncc4nc3[C@H](Cc3cc(F)cc(F)c3)NC(=O)Cn3nc(C(F)F)c4c3C(F)(F)[C@@H]3C[C@H]43)ccc(Cl)c12 (single isomer, unassigned) [Example 92] | – | – | 0.161 | > 10000 | – |
| Cc1cccc2c(=O)n(-c3ccc(Cl)c4c(NS(C)(=O)=O)nn(C)c34)c([C@H](Cc3cc(F)cc(F)c3)NC(=O)Cn3nc(C(F)F)c4c3C(F)(F)[C@@H]3C[C@H]43)nc12 (single isomer, unassigned) [Example 97] | – | – | – | > 1000 | 30.6 |
| CS(=O)(=O)Nc1nn(CC(F)F)c2c(-n3c([C@H](Cc4cc(F)cc(F)c4)NC(=O)Cn4nc(C(F)F)c5c4C(F)(F)[C@@H]4C[C@H]54)nc4ncccc4c3=O)ccc(Cl)c12 (single isomer, unassigned) [Example 44.1] | – | – | 0.049 | > 10000 | – |
| NC(=O)c1cc(-n2c([C@H](Cc3cc(F)cc(F)c3)NC(=O)Cn3nc(C(F)F)c4c3C(F)(F)[C@@H]3C[C@H]43)nc3ncccc3c2=O)ccc1F [Example 33, 5-{2-[(1S)-1-{2-[(2S,4R)-9-(difluoromethyl)-5,5-difluoro-7,8-diazatricyclo[4.3.0.0^2,4]nona-1(6),8-dien-7-yl]acetamido}-2-(3,5-difluorophenyl)ethyl]-4-oxo-3H,4H-pyrido[2,3-d]pyrimidin-3-yl}-2-fluorobenzamide] | – | – | 3.92 | > 10000 | – |
| Cn1nc(NS(C)(=O)=O)c2c(Cl)ccc(-n3c([C@H](Cc4cc(F)cc(F)c4)NC(=O)Cn4nc(C(F)F)c5c4C(F)(F)[C@@H]4C[C@H]54)nc4c(C(N)=O)cccc4c3=O)c21 (single isomer, unassigned) [Example 106] | – | – | 23.8 | > 1000 | – |
| CC(C)n1nc(NS(C)(=O)=O)c2c(Cl)ccc(-n3c([C@H](Cc4cc(F)cc(F)c4)NC(=O)Cn4nc(C(F)F)c5c4C(F)(F)[C@@H]4C[C@H]54)nc4ncccc4c3=O)c21 (mixture of isomers) [Example 43.2, N-[(1S)-1-{3-[4-chloro-3-methanesulfonamido-1-(propan-2-yl)-1H-indazol-7-yl]-4-oxo-3H,4H-pyrido[2,3-d]pyrimidin-2-yl}-2-(3,5-difluorophenyl)ethyl]-2-[(2S,4R)-9-(difluoromethyl)-5,5-difluoro-7,8-diazatricyclo[4.3.0.0^2,4]nona-1(6),8-dien-7-yl]acetamide] | – | – | 0.132 | > 10000 | – |
| COc1cccc2c(=O)n(-c3ccc(Cl)c4c(NS(C)(=O)=O)nn(C)c34)c([C@H](Cc3cc(F)cc(F)c3)NC(=O)Cn3nc(C(F)F)c4c3C(F)(F)[C@@H]3C[C@H]43)nc12 (single isomer, unassigned) [Example 103] | – | – | – | > 1000 | – |
| Cn1nc(NS(C)(=O)=O)c2c(Cl)ccc(-n3c([C@H](Cc4cc(F)cc(F)c4)NC(=O)Cn4ccc(C5CC5)n4)nc4cc(C(F)(F)F)ccc4c3=O)c21 (single isomer, unassigned) [Example 150] | – | – | – | > 1000 | – |
| Cn1nc(NS(C)(=O)=O)c2c(Cl)ccc(-n3c([C@H](Cc4cc(F)cc(F)c4)NC(=O)Cn4ccc(C5CC5)n4)nc4cc(CS(C)(=O)=O)ccc4c3=O)c21 [Example 205, (S)—N-(1-(3-(4-chloro-1-methyl-3-(methylsulfonamido)-1H-indazol-7-yl)-7-((methylsulfonyl)methyl)-4-oxo-3,4-dihydroquinazolin-2-yl)-2-(3,5-difluorophenyl)ethyl)-2-(3-cyclopropyl-1H-pyrazol-1-yl)acetamide] | – | – | – | > 1000 | – |
